Experimental data taken from patent US7879843B2, “Benzothiazin-3-one compound and intermediate therefor” (Dainippon Sumitomo Pharma Co., Ltd., priority 2004, dated 2011).
pIC50: −log10 of the molar value. Structures can show the parent of a compound that is named as a salt.

Tests used:
[1] = test system: rat partial-meniscectomy models; test: Pharmacological test on rat partial-meniscectomy models; type: in vivo; conditions: 50 mg/kg, orally six times per week for 3 weeks, SD (IGS) male rats
Description: SD (IGS) male rats aged 6 weeks (purchased from Charles River Japan Inc.) were used. The hair on the knee joint portion of right hind leg of each rat was shaved with a hair clipper under etherisation, and then the skin on the joint side of the lateral collateral ligament was incised along the ligament. Subsequently, the fascia was incised and the lateral collateral ligament was resected in a length of about 3 mm. Thereafter, the medial meniscus was exposed and the matters adhering to the meniscus were removed. The meniscus was picked up with tweezers and a part of the meniscus was cut off along the tweezers with microscissors. The fascia and the skin were sutured. One week after the above treatment, the administration of each test compound was started. The volume of the test compound administered was 10 ml/kg (solvent: 0.5% methyl cellulose) and the test compound was orally administered six times per week for 3 weeks. After the body weight was measured, the shinbone of the right hind leg was collected and fixed in 10% neutral buffered formalin. […] The average of scores for rats in each group was calculated and the degree of chondrodegeneration of a pathosis control group was taken as 100%. The chondrodegeneration inhibition rate of each compound was calculated by the following equation: Inhibition rate=1−(average score value of drug-treated group/score value of control group)×100

human MMP-13 = target: T1, human MMP-13 (Homo sapiens, UniProt P45452); test: Inhibitory activity against MMP-13 (fluorogenic MCA substrate); type: biochemical; conditions: activated human MMP-13, 37° C. for 12 hours
T1 construct: made in house; host or cells: COS-1 cells (pcDNA I vector), culture supernatant
Description: As MMP-13, there was used one which had been prepared by genetic engineering (using a well-known human chondrocyte cDNA library as a template, cDNA fragments were amplified by PCR by the use of primers 5′-[…]-3′ (SEQ ID NO: 1) and 5′-[…]-3′ (SEQ ID NO: 2) and each of the cDNA fragments amplified was inserted in a vector pcDNA I, and the vector was introduced into COS-1 cells derived from Afurikamidorizaru kidney, followed by culture and the recovery of the supernatant of a culture medium) on the basis of the well-known genetic base sequence of human MMP-13 (J. Biol. Chem., 269 (24), 16766-16773 (1994)) and had been activated by maintaining the thus prepared MMP-13 at 37° C. for 2 hours in the presence of 1 mM mercury 4-aminophenylacetate.
Inhibitory activity against human MMP-13 was measured according to the method of C. G. Knight et al. (FEBS Lett., 296 (3), 263-266 (1992)).
That is, 45 μl of assay buffer (0.1M Tris-hydrochloric acid, 0.1M sodium chloride, 0.01M calcium chloride, 0.05% Brigy 35, pH=7.5) was placed in a 96-well micro-titer plate for fluorometry, and 5 μl of a solution of a test compound in dimethyl sulfoxide was added thereto. […] After the micro-titer plate was maintained at 37° C. for 12 hours to carry out the reaction, fluorescence was measured with the fluorescence plate reader to measure the residual enzyme activity.

With `CCOC(=O)c1ccc2c(c1)N(CC(=O)NO)C(=O)[C@H](CCCc1ccc(OC)cc1)S2` (as salt: TFA) [Example 7, (−)-Ethyl 4-[2-(hydroxyamino)-2-oxoethyl]-2-[3-(4-methoxyphenyl)propyl]-3-oxo-3,4-dihydro-2H-1,4-benzothiazine-6-carboxylate] the melting point was 143.5 to 144.5 °C.
`CCOC(=O)c1ccc2c(c1)N(CC(=O)NO)C(=O)[C@H](CCCc1ccc(OC)cc1)S2` [Example 7, (−)-Ethyl 4-[2-(hydroxyamino)-2-oxoethyl]-2-[3-(4-methoxyphenyl)propyl]-3-oxo-3,4-dihydro-2H-1,4-benzothiazine-6-carboxylate] gave a chondrodegeneration inhibition rate [1] of 52%.
`COc1ccc(CCC[C@@H]2Sc3ccc(C(=O)O)cc3N(CC(=O)NO)C2=O)cc1` [Example 14, (−)-4-[2-(Hydroxyamino)-2-oxoethyl]-2-[3-(4-methoxyphenyl)propyl]-3-oxo-3,4-dihydro-2H-1,4-benzothiazine-6-carboxylic acid] gave a pIC50 (human MMP-13) of 7.36.
